Tested on: C57BL/6J ob/ob mice
Test: Glucose lowering activity of halofenate analogs in ob/ob mice (Example 12)
Format: in vivo
Conditions: for Predose Glucose: baseline before dosing

Row | SMILES | 6 hours Glucose (125 mg/kg oral once a day) [mg/dL] | 30 hours Glucose (125 mg/kg oral once a day) [mg/dL] | 54 hours Glucose (125 mg/kg oral once a day) [mg/dL] | Predose Glucose (125 mg/kg group) [mg/dL] | time points with significantly lowered plasma glucose (125 mg/kg oral once a day) [h] | Predose Glucose (150 mg/kg group) [mg/dL] | 6 hours Glucose (single oral dose 150 mg/kg) [mg/dL] | time points with significantly reduced plasma glucose (single oral dose 150 mg/kg) [h]
1 | CC(=O)NCCOC(=O)C(Oc1cccc(C(F)(F)F)c1)c1ccc(F)cc1 (racemic) [(±)Analog 14] | 328.9 ± 34.1 | 267.0 ± 21.3 | 293.0 ± 29.4 | 361.0 ± 17.1 |  |  |  | 
2 | CC(=O)NCCOC(=O)C(Oc1cccc(C(F)(F)F)c1)c1ccc(Br)cc1 (racemic) [(±)Analog 29] | 299.7 ± 24.5 | 237.4 ± 14.9 | 293.3 ± 9.7 | 387.1 ± 16.0 |  |  |  | 
3 | CCCCOC(=O)C(Oc1cccc(C(F)(F)F)c1)c1ccc(Cl)cc1 (racemic) [(±)Analog 33] | 227.5 ± 13.2 | 298.0 ± 15.3 | 286.6 ± 9.9 | 292.0 ± 19.1 |  |  |  | 
4 | O=C(NCCOC(=O)C(Oc1cccc(C(F)(F)F)c1)c1ccc(Cl)cc1)c1ccccc1 (racemic) [(±)Analog 36] | 300.5 ± 27.3 | 249.7 ± 8.6 | 272.2 ± 18.4 | 329.7 ± 17.6 |  |  |  | 
5 | NC(=O)COC(=O)C(Oc1cccc(C(F)(F)F)c1)c1ccc(Cl)cc1 (racemic) [(±)Analog 37] | 345.4 ± 19.7 | 312.5 ± 21.7 | 285.1 ± 14.7 | 387.4 ± 18.8 | 54 |  |  | 
6 | CN(C)C(=O)COC(=O)C(Oc1cccc(C(F)(F)F)c1)c1ccc(Cl)cc1 (racemic) [(±)Analog 38] | 303.2 ± 18.2 | 245.6 ± 15.6 | 243.1 ± 10.6 | 329.4 ± 18.9 |  |  |  | 
7 | CC(=O)NCCOC(=O)C(Oc1cccc(C(F)(F)F)c1)c1ccc(Br)cc1 (single isomer, unassigned; (-)) [(−)Analog 29] |  |  |  |  |  | 372.2 ± 17.1 | 333.5 ± 16.1 | 6
8 | O=C(NCCOC(=O)C(Oc1cccc(C(F)(F)F)c1)c1ccc(Cl)cc1)c1ccccc1 (single isomer, unassigned; (-)) [(−)Analog 36] |  |  |  |  |  | 373.2 ± 15.5 | 281.1 ± 18.2 | 6
9 | NC(=O)COC(=O)C(Oc1cccc(C(F)(F)F)c1)c1ccc(Cl)cc1 (single isomer, unassigned; (-)) [(−)Analog 37] |  |  |  |  |  | 373.4 ± 16.1 | 271.7 ± 22.5 | 6
10 | CN(C)C(=O)COC(=O)C(Oc1cccc(C(F)(F)F)c1)c1ccc(Cl)cc1 (single isomer, unassigned; (-)) [(−)Analog 38] |  |  |  |  |  | 373.4 ± 16.1 | 251.2 ± 23.6 | 6
